Assay results from patent US5948764A, “Methods for treatment of multiple sclerosis utilizing peptide analogues of human myelin basic protein” (Neurocrine Biosciences, Inc., priority 1997, dated 1999).
Where a SMILES comes first, the peptide text is derived from it. [ ]: non-standard residue; d: D form.

Columns and labels:
[1] = system: Murine MBP-specific T cell clones (AG.1H8); test: Proliferation of murine MBP-specific T cell clone AG.1H8; assay type: cell-based; conditions: 72 hr, [3H]-thymidine
Experimental: Murine MBP-specific T cell clones were also used as targets in proliferation assays. T cell clones (30,000 cells) were cultured for 72 hr in the presence of MBP 87-99, A97, or PLP 139-151 (myelin proteolipid protein), and irradiated, syngeneic spleen cells. For 18 hr prior to harvesting, [^3 H]-thymidine was added to each culture. Incorporated thymidine was determined.

[2] = system: IL-2 stimulated T cell line reactive to MBP 87-99; test: Cytokine production by MBP 87-99 reactive T cell line (ELISA); assay type: cell-based, SJL; conditions: 48 hr; 10 μM PLP 139-151, 3 μM A97 or 3 μM MBP 87-99
Experimental: Other suitable assays of antigen-specific T cell responses include induction of cytokine production, phosphorylation of the CD3 zeta chain, and induction of apoptosis. Briefly, for assaying cytokine production, an IL-2-stimulated T cell line, which is reactive to MBP […], is incubated with IL-2 and various MBP peptide analogues. Cytokine release is measured at 48 hr. Cytokines are measured by ELISA, or alternatively, RNA expression of cytokines may be measured by Northern blot, RNase probe protection or other standard hybridization methods. Cytokines to be assayed include IL-1 through IL-14, γ-IFN, TNF, and the like. Phosphorylation of the CD3 zeta chain is assayed in MBP 87-89-specific T cells. Briefly, cells are co-incubated with antigen-presenting cells, such as T-depleted splenocytes, which have been pulsed with MBP 87-99 or peptide analogue. Cells are then lysed, and the zeta chain is immunoprecipitated and electrophoresed on an SDS-PAGE gel. The […] may be detected with an antibody. In a third assay, apoptosis may be induced in an antigen-specific manner. For this assay, an MBP stimulated T cell line is incubated with IL-2 and various peptides. Cell loss is measured by flow cytometry or other standard method.
Cytokine production by an IL-2 stimulated T cell line, which is reactive to MBP 87-99, is measured in response to various peptides and peptide analogues. The activated T cell line is co-cultured for 48 hr with a 10-fold excess of irradiated (3000 Rads) SJL T cell-depleted spleen cells, 50 IU/ml human rIL-2 and 10 μM PLP 139-151, 3 μM A97, or 3 μM MBP 87-99. Cytokine release is measured by ELISA.

[3] = system: lymph node cells from MBP 87-99 immunized rats; test: Antigen-specific lymph node cell proliferation, MBP 87-99 immunized rats; assay type: cell-based, Lewis rats; conditions: FIG. 3B, separate experiment
Experimental: Within the second assay, draining lymph node cells from Lewis rats or SJL mice injected with MBP (87-99) may be used. Preferably, this assay is used in combination with the proliferation assay using T cell lines. Briefly, Lewis rats or SJL mice are injected subcutaneously with MBP (87-99) peptide in complete Freund's adjuvant. Nine to ten days later, draining lymph node cells are isolated and single-cell suspensions are prepared. Lymph node cells are incubated with various concentrations of peptide analogues for three days in a humidified air chamber containing 6.5% CO2. After incubation, the cultures are pulsed with 1-2 μCi of [^3 H]-thymidine for 12-18 hours. Cultures are harvested on fiberglass filters and counted in a scintillation counter. Mean CPM and the standard error of the mean are calculated from data determined in triplicate cultures. […] Peptide analogues which are suitable for further screening will preferably, at concentrations of at least 10 μM, cause stimulation to a level of at least 25% of the native peptide.
Female Lewis rates, approximately six weeks old, are purchased from Harlan Sprague, Indianapolis, Ind. MBP peptides are dissolved in phosphate-buffered saline (PBS) and emulsified with an equal volume of complete Freund's adjuvant (Difco Laboratories, Inc., Detroit, Mich.) supplemented with 2 mg/ml of heat-killed Mycobacterium tuberculosis H37Ra in oil (Difco). […]

EAE [4] = conditions: single 250 μg dose in CFA, pertussis toxin i.v. day 0 and 2
Experimental: Similarly, mice are injected with a single, 250 μg dose of MBP (87-99) or A97 in CFA containing 500 μg of heat killed Mycobacterium. Pertussis toxin (400 ng/mouse) is injected i.v. at day 0 and day 2. Mice are assessed for disease symptoms as described above.

EAE [5] = conditions: rat, in vivo
multiple sclerosis = conditions: in vivo; cited from earlier work

## PLP 139-151: myelin proteolipid protein peptide 139-151, control peptide (CHCLGKWLGHPDK; UniProt P60202 139-151, looked up, fragment)
[1]; 10 μM peptide
  Proliferation: 0.15 ± 0.03 CPM × 10^-3
[1]; 50 μM peptide
  Proliferation: 0.26 ± 0.12 CPM × 10^-3
[2]
  IL-2 release: 1646 pg/mL
  IL-4 release: 2197 pg/mL
  γ-IFN release: 3073 pg/mL

## CC[C@H](C)[C@H](NC(=O)[C@@H]1CCCN1C(=O)[C@@H](NC(=O)[C@@H](N)Cc1ccccc1)C(C)C)C(=O)N[C@@H](Cc1ccccc1)C(=O)N[C@H](C(=O)N[C@@H](Cc1ccc(O)cc1)C(=O)NCC(=O)N[C@@H](CCC(=O)O)C(=O)N[C@@H](CC(C)C)C(=O)N[C@@H](CCC(N)=O)C(=O)N[C@@H](CCCNC(=N)N)C(=O)N[C@@H](CCSC)C(=O)N[C@@H](CCC(N)=O)C(=O)N[C@@H](CCC(=O)O)C(=O)N[C@@H](CCCCN)C(=O)N[C@@H](CCC(=O)O)C(=O)N[C@@H](CCCNC(=N)N)C(=O)N[C@@H](CC(N)=O)C(=O)N[C@@H](CCCCN)C(=O)NCC(=O)N[C@@H](CCC(N)=O)C(=O)O)[C@@H](C)O [motlin]
[3]
  proliferative response of lymph node cells: not

## CC[C@H](C)[C@H](NC(=O)[C@H](CC(N)=O)NC(=O)[C@H](CCCCN)NC(=O)[C@H](Cc1ccccc1)NC(=O)[C@H](Cc1ccccc1)NC(=O)[C@H](Cc1c[nH]cn1)NC(=O)[C@@H](NC(=O)[C@@H](N)C(C)C)C(C)C)C(=O)N[C@H](C(=O)N[C@H](C(=O)N1CCC[C@H]1C(=O)N[C@@H](C)C(=O)N[C@H](C(=O)N1CCC[C@H]1C(=O)O)[C@@H](C)O)[C@@H](C)O)C(C)C [A97] (H-VVHFFKNIVTPATP-OH)
EAE [4]
  animals developing disease: 5/5
EAE [4]; FIG. 11
  mean clinical score following injection: increased mean clinical score

## CC[C@H](C)[C@H](NC(=O)[C@H](CC(N)=O)NC(=O)[C@H](CCCCN)NC(=O)[C@H](Cc1ccccc1)NC(=O)[C@H](Cc1ccccc1)NC(=O)[C@@H](Cc1c[nH]cn1)NC(=O)[C@@H](NC(=O)[C@@H](N)C(C)C)C(C)C)C(=O)N[C@H](C(=O)N[C@H](C(=O)N1CCC[C@H]1C(=O)N[C@@H](CCCNC(=N)N)C(=O)N[C@H](C(=O)N1CCC[C@H]1C(=O)O)[C@@H](C)O)[C@@H](C)O)C(C)C [h88] (H-VV[dH]FFKNIVTPRTP-OH)
EAE [5]
  induction of EAE: does not induce EAE in rats

B1: IFN-γ: cytokine administered in a pilot study in MS (protein, UniProt P01579 24-161, looked up)
Interferon gamma: QDPYVKEAENLKKYFNAGHSDVADNGTLFLGILKNWKEESDRKIMQSQIVSFYFKLFKNFKDDQSIQKSVETIKEDMNVKFFNSNKKKRDDFEKLTNYSVTDLNVQRKAIHELIQVMAELSPAAKTGKRKRSQMLFRG
Multiple sclerosis
  patients with a clinical exacerbation: 7 of 18
